# In patent US5012004A, “Ether compounds and their production, and insecticidal and/or acaricidal compositions containing them” (priority 1987, dated 1991):
# Read-outs that look alike come from different tables or passages of the source.
# Columns and labels:
# Type in all cases: in vivo
# [1] = test system: last instar larvae of common mosquito (Culex pipiens pallens); experiment: Emergence inhibition of last instar larvae of common mosquito (Test Example 3); conditions: read-out: Rate of emergence inhibition (%)
# Method: (§1) One of Compound Nos. 1 to 38 (10 parts), polyoxyethylene styrylphenyl ether (14 parts), calcium dodecylbenzenesulfonate (6 parts), xylene (35 parts) and dimethylformamide (35 parts) are well mixed to make an emulsifiable concentrate.
# An emulsifiable concentrate prepared according to Formulation Example 2 was diluted with water to make a concentration of 3.5 ppm. The dilution (100 ml) was charged in a plastic cup (each 180 ml volume), and twenty last instar larvae of common mosquito (Culex pipiens pallens) were released therein. Feeding was continued until emergence of all larvae, and the rate of emergence inhibition was observed.
# The rate of emergence inhibition was determined according to the following criteria:
# Rate of emergence inhibition […]
# b: less than 90% to not less than 80% inhibition c: less than 80% inhibition
# [2] = test system: adults of brown rice planthopper (Nilaparvata lugens); experiment: Mortality of adults of brown rice planthopper on dipped rice stems (Test Example 2); conditions: 24 h, 200 fold dilution (ca. 500 ppm), one day thereafter, two replications
# Source text: as §1
# Stems of rice plants (about 12 cm in length) were dipped in a 200 fold dilution (ca. 500 ppm) of the emulsifiable concentrate prepared according to Formulation Example 2. After air-drying, the stems were taken into a test tube and 10 adults of brown rice planthopper (Nilaparvata lugens) were released therein.
# [3] = test system: female carmine spider mites (Tetranychus cinnabarinus); experiment: Plant damage by female carmine spider mites on kidney bean, pot spray plus soil application (Example 4); conditions: ca. 500 ppm, 15 ml spray per pot plus 2 ml to soil, eight days thereafter
# Method: as §1
# Adults of female carmine spider mites (Tetranychus cinnabarinus) were permitted to live on leaves (10 mites per leaf) of kidney bean seven days after sowing in the pots, and the mites were kept at 25° C. in a greenhouse. After 6 days, a 200 fold dilution (ca. 500 ppm) of the emulsifiable concentrate prepared according to Formulation Example 2 was sprayed over the pots placed on a turn table at a spray volume of 15 ml per pot, and also 2 ml of the dilution were applied to the soil in each pot. Eight days thereafter, the plant damage by the mites was observed and evaluated according to the following criteria:
# ______________________________________
# -: no material damage to leaves
# +: slight damage to leaves
# [4] = test system: eggs of diamondback moth (Plutella xylostella); experiment: Ovicidal test: mortality of eggs of diamondback moth on dipped radish cotyledons (Test Example 1); conditions: 72 h, read-out: Mortality (%) of the eggs
# Source text: Seven days after sowing, adults of diamondback moth (Plutella xylostella) were released to cotyledons of three radishes for oviposition (about 15 eggs per 1 cotyledon). […] After air-drying, the seedlings were taken into a cup made of polyethylene at the bottom of which were placed a filter paper.
# [5] = 200 fold dilution (ca. 500 ppm), cotyledons dipped 30 seconds, three days thereafter, two replications
# [6] = 3.5 ppm, twenty last instar larvae, until emergence
Structure (SMILES),Plant damage [3],mortality at 500 µg/mL [4] [%],"mortality at 500 µg/mL [4, 5] [%]",also measured
"FCCOc1ccc(OCc2ccccc2)cc1 [A, reference compound]",,,,inhibition at 3.5 ppm [1]: 80 to 90%; mortality at 500 µg/mL [2]: 0%
"Cc1cc(Cl)ccc1N=CN(C)C [B, N'-(4-chloro-2-methylphenyl)-N,N-dimethylformamidine, reference compound]",+,,,
FCCOc1ccccc1 [Compound No. 1],,100,,
FCCOc1ccc(F)cc1 [Compound No. 2],,100,,
FCCOc1ccccc1Cl [Compound No. 3],,100,,mortality at 500 µg/mL [2]: 100%
"FCCOc1ccc(C(F)F)cc1 [Compound No. 10, 1-difluoromethyl-4-(2-fluoroethoxy)benzene]",,,100,
"FCCOc1ccccc1-c1ccccc1 [Compound No. 20, 1-(2-fluoroethoxy)-2-phenylbenzene]",,,100,mortality at 500 µg/mL [2]: 100%
"FCCOc1ccc(Oc2ccccc2)cc1 [Compound No. 22, 1-(2-fluoroethoxy)-4-phenoxybenzene]",- ~ +,,100,inhibition at 3.5 ppm [1]: > 90%; mortality at 500 µg/mL [2]: 100%
"FCCOc1ccc(Oc2cccc(F)c2)cc1 [Compound No. 23, 1-(2-fluoroethoxy)-4-(3-fluorophenoxy)benzene]",,,100,inhibition at 3.5 ppm [1]: > 90%; mortality at 500 µg/mL [2]: 100%
"FCCOc1ccc2oc3ccccc3c2c1 [Compound No. 35, 2-(2-fluoroethoxy)-dibenzofuran]",-,,100,inhibition at 3.5 ppm [1]: > 90%
FCCOc1cccc(Cl)c1 [compound 4],,100,,
COc1cccc(OCCF)c1 [compound 5],,100,,
Cc1ccccc1OCCF [compound 6],,100,,
Cc1cccc(OCCF)c1 [compound 7],,100,,
Cc1ccc(OCCF)cc1 [compound 8],,100,,
Cc1cc(Cl)ccc1OCCF [compound 9],,100,,inhibition at 3.5 ppm [1]: > 90%
FCCOc1ccc(OCCF)cc1 [compound 11],- ~ +,100,,inhibition at 3.5 ppm [1]: > 90%; mortality at 500 µg/mL [2]: 100%
FCCOc1ccc(-c2ccc(OCCF)cc2)cc1 [compound 12],,100,,
FCCOc1ccc2c(c1)OCO2 [compound 13],,,100,
FCCOc1ccccc1CBr [compound 14],,100,,

Structure (SMILES),Plant damage [3],mortality at 500 µg/mL [4] [%],"mortality at 500 µg/mL [4, 5] [%]",also measured
FCCOc1cccc(CBr)c1 [compound 15],,100,,
FCCOc1ccc(CBr)cc1 [compound 16],,100,,
FCCOc1ccccc1COc1ccc(Oc2ccccc2)cc1 [compound 17],-,,100,
FCCOc1cccc(COc2ccc(Oc3ccccc3)cc2)c1 [compound 18],- ~ +,,100,"inhibition at 3.5 ppm [1, 6]: > 90%"
FCCOc1ccc(COc2ccc(Oc3ccccc3)cc2)cc1 [compound 19],,,100,"inhibition at 3.5 ppm [1, 6]: > 90%"
FCCOc1cccc(-c2ccccc2)c1 [compound 21],- ~ +,,100,inhibition at 3.5 ppm [1]: > 90%
FCCOc1ccc(Oc2cc(F)cc(F)c2)cc1 [compound 24],,,100,inhibition at 3.5 ppm [1]: > 90%
FCCCCOc1ccc(Oc2ccccc2)cc1 [compound 25],,,100,"inhibition at 3.5 ppm [1, 6]: > 90%"
CC(CF)Oc1ccc(Oc2ccccc2)cc1 (stereo not shown) [compound 26],,,100,"inhibition at 3.5 ppm [1, 6]: > 90%"
CC(F)COc1ccc(Oc2ccccc2)cc1 (stereo not shown) [compound 27],,,100,"inhibition at 3.5 ppm [1, 6]: > 90%"
CCC(F)COc1ccc(Oc2ccccc2)cc1 (stereo not shown) [compound 28],,,100,"inhibition at 3.5 ppm [1, 6]: > 90%"
FCCOc1cccc(Oc2ccccc2)c1 [compound 29],,,100,mortality at 500 µg/mL [2]: 90%
FCCOc1ccc(Cc2ccccc2)cc1 [compound 30],- ~ +,,100,mortality at 500 µg/mL [2]: 100%
CC(C)(c1ccccc1)c1ccc(OCCF)cc1 [compound 31],,,100,
CC(C)(c1ccc(OCCF)cc1)c1ccc(OCCF)cc1 [compound 32],,,100,"inhibition at 3.5 ppm [1, 6]: > 90%"
FCCOc1ccc(Sc2ccccc2)cc1 [compound 33],-,,100,inhibition at 3.5 ppm [1]: > 90%; mortality at 500 µg/mL [2]: 100%
FCCOc1ccc(Sc2ccc(OCCF)cc2)cc1 [compound 34],,,100,inhibition at 3.5 ppm [1]: > 90%
O=C(c1ccccc1)c1ccc(OCCF)cc1 [compound 36],-,,100,
O=C1c2ccccc2-c2ccc(OCCF)cc21 [compound 37],- ~ +,,100,
FCCOc1ccc(OC2C=CCCC2)cc1 (stereo not shown) [compound 38],-,,100,
